Read-outs that look alike come from different tables or passages of the source. Non-standard residues stand in square brackets, D forms with d. Residues, ends and D or L forms follow the SMILES beside them. *: point of attachment. pY = N[C@@H](Cc1ccc(OP(=O)(O)O)cc1)C(=O)O; Caffeoyl = O=C(/C=C/c1ccc(O)c(O)c1)*

We go through nine compounds from article PMC12951562, “SH2scan: Mapping SH2 Domain-Ligand Binding Selectivity for Inhibitors and Degraders” (Journal of Medicinal Chemistry, 2026).

The target in assay [1] is T1, STAT5B (Homo sapiens, UniProt P51692).
T1 construct: made in house; host or cells: HEK293 (transient transfection), unpurified extract
T1 sequence (P51692 1-787): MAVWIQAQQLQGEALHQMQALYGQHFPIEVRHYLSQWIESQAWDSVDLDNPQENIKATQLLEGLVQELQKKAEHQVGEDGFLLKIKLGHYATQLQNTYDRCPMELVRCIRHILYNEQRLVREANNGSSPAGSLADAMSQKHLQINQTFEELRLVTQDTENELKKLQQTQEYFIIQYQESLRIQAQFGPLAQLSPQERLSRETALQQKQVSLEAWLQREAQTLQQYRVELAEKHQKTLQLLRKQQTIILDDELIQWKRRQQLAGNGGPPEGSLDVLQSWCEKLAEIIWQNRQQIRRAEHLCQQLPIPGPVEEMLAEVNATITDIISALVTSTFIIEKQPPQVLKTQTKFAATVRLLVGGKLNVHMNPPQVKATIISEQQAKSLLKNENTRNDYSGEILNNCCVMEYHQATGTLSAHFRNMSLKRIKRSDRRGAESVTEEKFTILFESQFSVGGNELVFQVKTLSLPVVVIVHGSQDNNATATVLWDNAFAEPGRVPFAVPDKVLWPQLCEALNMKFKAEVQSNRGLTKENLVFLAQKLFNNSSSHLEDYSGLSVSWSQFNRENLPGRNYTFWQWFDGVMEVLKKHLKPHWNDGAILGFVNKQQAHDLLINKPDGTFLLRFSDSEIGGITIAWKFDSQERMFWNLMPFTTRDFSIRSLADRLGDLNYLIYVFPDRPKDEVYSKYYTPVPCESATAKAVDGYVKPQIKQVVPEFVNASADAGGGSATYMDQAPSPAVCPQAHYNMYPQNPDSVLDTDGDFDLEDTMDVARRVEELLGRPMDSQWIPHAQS
Kind of assay: biochemical. The format is binding. The following applies: for percent of DMSO vehicle control at 10 µM / remaining activity at 10 µM: read-out: percent of DMSO vehicle control.

In assay [2] the target is STAT4. On the set-up: method as in Bai et al., Cancer Cell, 2019. The conditions noted are these: FP and BLI; ref Bai et al., Cancer Cell, 2019; cited from earlier work.
The target in assay [3] is STAT6. Further details: method as in Bai et al., Cancer Cell, 2019. The following applies: FP and BLI; ref Bai et al., Cancer Cell, 2019; cited from earlier work.
For a further assay, the target named is STAT1. On the set-up: method as in Bai et al., Cancer Cell, 2019. The conditions noted are these: FP and BLI; ref Bai et al., Cancer Cell, 2019; cited from earlier work.
For another assay, the target named is STAT2. Further details: method as in Bai et al., Cancer Cell, 2019. The conditions noted are these: FP and BLI; ref Bai et al., Cancer Cell, 2019; cited from earlier work.
The next assay deals with STAT3. On the set-up: method as in Bai et al., Cancer Cell, 2019. The conditions noted are these: FP and BLI; ref Bai et al., Cancer Cell, 2019; cited from earlier work.
The next assay has as its target STAT5A. Further details: method as in Bai et al., Cancer Cell, 2019. The conditions noted are these: FP and BLI; ref Bai et al., Cancer Cell, 2019; cited from earlier work.
Assay [4] concerns the target STAT5B. Further details: method as in Bai et al., Cancer Cell, 2019. The following applies: FP and BLI; ref Bai et al., Cancer Cell, 2019; cited from earlier work.
In assay [5] the test system is STAT6. On the set-up: method as in Mandal et al., Journal of Medicinal Chemistry, 2015. The following applies: FP; ref Mandal et al., Journal of Medicinal Chemistry, 2015; cited from earlier work.
In the next assay the target is T2, CBL (Homo sapiens, UniProt P22681).
T2 construct: the DNA-tagged SH2 domain concentrations used in this study were <0.1 nM; made in house; host or cells: HEK293 (transient transfection; unpurified extract)
T2 sequence (P22681 249-351 limits assumed): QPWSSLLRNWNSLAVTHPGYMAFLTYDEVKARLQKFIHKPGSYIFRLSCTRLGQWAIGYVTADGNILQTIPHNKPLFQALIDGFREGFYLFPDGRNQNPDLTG
Put plainly: biochemical. The format is binding.

A further assay deals with T3, ZAP70(SH2dom1.dom2.) (Homo sapiens, UniProt P43403).
T3 sequence (P43403 1-254 limits assumed): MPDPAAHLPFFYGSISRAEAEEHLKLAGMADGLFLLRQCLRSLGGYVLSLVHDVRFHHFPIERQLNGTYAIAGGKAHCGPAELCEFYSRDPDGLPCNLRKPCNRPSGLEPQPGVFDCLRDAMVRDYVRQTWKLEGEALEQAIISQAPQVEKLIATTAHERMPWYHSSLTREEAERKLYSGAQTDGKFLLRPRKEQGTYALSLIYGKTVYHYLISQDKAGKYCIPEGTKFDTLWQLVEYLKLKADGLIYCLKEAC
The following applies: primary screen, 10 μM.

The next assay deals with SOCS2. Further details: method as in Ramachandran et al., Nature Communications, 2023. The following applies: ITC; ref Ramachandran et al., Nature Communications, 2023; cited from earlier work. A general note: In ITC the heat of successive injections is recorded.
In the next assay the test system is GRB2. Further details: method as in Gay et al., International Journal of Cancer, 1999. The conditions noted are these: ELISA; ref Gay et al., International Journal of Cancer, 1999; cited from earlier work. Background: ELISA stands for enzyme-linked immunosorbent assay.
For a further assay, the system named is PTPN11 (SH2dom.N-term.). Further details: method as in Gay et al., International Journal of Cancer, 1999. The following applies: ELISA; ref Gay et al., International Journal of Cancer, 1999; cited from earlier work.
The next assay deals with FYN. On the set-up: method as in Gay et al., International Journal of Cancer, 1999. The conditions noted are these: ELISA; ref Gay et al., International Journal of Cancer, 1999; cited from earlier work.
The test system of a further assay is PTPN11 (SH2dom.C-term.). Further details: method as in Gay et al., International Journal of Cancer, 1999. The following applies: ELISA; ref Gay et al., International Journal of Cancer, 1999; cited from earlier work.
The subject of a further assay is PIK3R1 (SH2dom.N-term.). Further details: method as in Gay et al., International Journal of Cancer, 1999. The following applies: ELISA; ref Gay et al., International Journal of Cancer, 1999; cited from earlier work.
The target in assay [6] is STAT4. Further details: method as in earlier work. The conditions noted are these: FP; ref Elumalai et al., Angewandte Chemie International Edition, 2015; cited from earlier work.
For assay [7], the target named is STAT5B. Further details: method as in earlier work. The following applies: FP; ref Elumalai et al., Angewandte Chemie International Edition, 2015; cited from earlier work.
Assay [8] deals with STAT6. On the set-up: method as in earlier work. The following applies: FP; ref Elumalai et al., Angewandte Chemie International Edition, 2015; cited from earlier work.

As for `NC(=O)CC[C@H](NC(=O)[C@@H]1CC[C@@H]2CCN(C(=O)CCCCCC#Cc3cccc4c3CN(C3CCC(=O)NC3=O)C4=O)C[C@H](NC(=O)c3cc4cc(C(F)(F)P(=O)(O)O)ccc4[nH]3)C(=O)N21)C(=O)NC(c1ccccc1)c1ccccc1` (some centres unmarked) [SD-36], the dissociation constant Kd (commonly the free concentration of one partner at which half of the binding sites on the other are occupied at equilibrium, for simple one-to-one binding) on STAT5B [1] (dose-response) is 2030 ± 820 nM; on STAT4 [2], 804 nM; at STAT6 [3], 11300 nM; on STAT1, 1090 nM; on STAT2, 4880 nM; on STAT3, 44.4 nM. For the same compound, the values for the Kd on STAT5A and on STAT5B [4] were 6180 nM and 11700 nM, respectively. In addition, the percent of DMSO vehicle control at 10 µM at STAT5B [1] was 5.7 ± 0.1%.

As for `CC(C)(C)[C@H](NC(=O)/C=C/c1ccc(OP(=O)(O)O)cc1)C(=O)N1CCC[C@H]1C(=O)N(c1ccccc1)c1ccc(I)cc1` [STAT6-IN-3], on STAT5B [1] (dose-response, read-out: KD), the dissociation constant (Kd) was determined as 69 ± 42 nM. The remaining activity at 10 µM at STAT5B [1] (primary screen, 10 μM) turned out to be 0%. The 50% inhibitory concentration (IC50) (in general, the concentration needed to halve the response being measured) in the assay with STAT6 [5] was 44 nM.

In the case of `CC[C@H](C)[C@H](NC(=O)[C@H](CCC(=O)O)NC(=O)[C@H](CCC(=O)O)NC(=O)[C@H](Cc1ccc(OP(=O)(O)O)cc1)NC(C)=O)C(=O)N[C@@H](CCC(=O)O)C(N)=O` [Ac-pYEEIE-NH2] (Ac-[pY]EEIE-NH2), the “percent of DMSO vehicle control” value at CBL (primary screen, 10 μM) was determined as 121.6%; at STAT5B [1] (primary screen, 10 μM), 21.8±4.7%; at ZAP70(SH2dom1.dom2.), 134.0%.

As to `O=C(CCl)Nc1cccc(CNC(=O)[C@H](Cc2ccc(OP(=O)(O)O)cc2)NC(=O)Cc2ccc(F)cc2)c1` [MN551], on STAT5B [1] (primary screen, 10 μM), the remaining activity at 10 µM was 49.1 ± 7.6%. In addition, on SOCS2, the Kd was 2180 nM.

For the compound `CC(=O)N[C@@H](Cc1ccc(CP(=O)(O)O)cc1)C(=O)NC1(C(=O)N[C@@H](CC(N)=O)C(=O)NCCCc2c(O)ccc3ccccc23)CCCCC1` [CGP78850], the 50% inhibitory concentration (IC50) in the assay on GRB2 is 40 nM; in the assay with PTPN11 (SH2dom.N-term.), > 50000 nM; in the assay with FYN, > 50000 nM; in the assay with PTPN11 (SH2dom.C-term.), > 50000 nM; in the assay on PIK3R1 (SH2dom.N-term.), > 50000 nM. On STAT5B [1], the percent of DMSO vehicle control at 10 µM amounted to 89.6 ± 6.1%.

Turning to `CC(=O)N1CC[C@H]2CC[C@@H](C(=O)N[C@@H](CCC(N)=O)C(=O)NC(c3ccccc3)c3ccccc3)N2C(=O)[C@@H](NC(=O)c2cc3cc(C(F)(F)P(=O)(O)O)ccc3[nH]2)C1` [SI-109], the equilibrium dissociation constant (Kd) on STAT5B [1] was 18000 ± 4000 nM; on STAT4 [2] it was 1980 nM; at STAT6 [3], 3370 nM; on STAT1 it was 1270 nM; at STAT2 it was 6630 nM; at STAT3, 51.2 nM. Moreover, at STAT5B [1], the percent of DMSO vehicle control at 10 µM was 109%.

As for `CC[C@H](C)[C@H](NC(=O)[C@H](CCC(=O)O)NC(=O)[C@H](CCC(=O)O)NC(=O)[C@H](Cc1ccc(OP(=O)(O)O)cc1)NC(=O)/C=C/c1ccc(O)c(O)c1)C(=O)N[C@@H](CCC(=O)O)C(=O)O` [Caffeic acid-pYEEIE] (Caffeoyl-[pY]EEIE-OH), the dissociation constant Kd on CBL was determined as 11000 nM. Also, on STAT5B [1], the Kd is 4200 ± 2800 nM and the percent of DMSO vehicle control at 10 µM is 19.3 ± 2.8%.

Turning to `O=C(COc1ccc2cc(C(=O)Nc3ccccc3)ccc2c1)NCc1ccc(OP(=O)(O)O)c(OP(=O)(O)O)c1` [Stafib-1], the remaining activity at 10 µM at STAT5B [1] (primary screen, 10 μM) came to 0%. The Ki (usually a dissociation constant, usually derived from enzyme kinetics or from competition with a known ligand) on STAT4 [6] was 3290 nM; at STAT5B [7], 44 nM; at STAT6 [8] it was 3470 nM.

Turning to `C/C(=C\C(=O)N[C@H](C(=O)N1CCC[C@H]1C(=O)N(c1ccccc1)c1ccc(I)cc1)C(C)(C)C)c1ccc(OP(=O)(O)O)cc1` [STAT6-IN-1], the Kd came to 8100 ± 1300 nM on CBL and 16 ± 3.2 nM on STAT5B [1] (dose-response, read-out: KD). Further, the remaining activity at 10 µM on STAT5B [1] (primary screen, 10 μM) was found to be 0%. Besides, in the assay with STAT6 [5], the IC50 is 28 nM.
